Where a name gives a salt, the structure may show the parent alone. The source made the active and inactive calls. No cut-off for these calls is given here.
Key:
[1] = target: Cholinesterase (Equus caballus) (UniProt P81908); assay: Reversible mixed-type inhibition of Equus caballus (horse) serum butyrylcholinesterase (BChE) assessed as inhibition of BTCh hydrolysis by Ellman method
Acetylcholinesterase = Acetylcholinesterase (Electrophorus electricus, UniProt O42275); assay: Inhibition of Electrophorus electricus (electric eel) acetylcholinesterase (AChE) assessed as inhibition of ATCh hydrolysis by Ellman method
Chain of Acetylcholinesterase (O42275 whole entry): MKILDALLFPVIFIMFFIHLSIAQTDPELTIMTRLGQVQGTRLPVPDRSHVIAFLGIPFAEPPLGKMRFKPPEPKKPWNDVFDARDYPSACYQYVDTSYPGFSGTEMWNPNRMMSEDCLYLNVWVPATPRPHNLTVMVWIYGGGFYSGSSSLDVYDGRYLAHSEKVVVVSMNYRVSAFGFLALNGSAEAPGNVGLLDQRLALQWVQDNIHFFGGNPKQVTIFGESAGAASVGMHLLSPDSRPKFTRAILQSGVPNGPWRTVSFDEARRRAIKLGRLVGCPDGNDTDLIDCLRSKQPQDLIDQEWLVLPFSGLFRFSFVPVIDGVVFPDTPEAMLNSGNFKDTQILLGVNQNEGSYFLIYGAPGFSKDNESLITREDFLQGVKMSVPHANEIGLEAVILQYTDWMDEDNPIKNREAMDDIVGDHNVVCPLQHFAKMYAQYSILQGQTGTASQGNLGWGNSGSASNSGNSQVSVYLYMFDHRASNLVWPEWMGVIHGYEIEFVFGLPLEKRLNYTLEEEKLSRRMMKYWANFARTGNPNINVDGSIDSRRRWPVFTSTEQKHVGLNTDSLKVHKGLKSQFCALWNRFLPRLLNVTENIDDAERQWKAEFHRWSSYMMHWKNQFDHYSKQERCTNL

Cholinesterase = Cholinesterase (Equus caballus, UniProt P81908); assay: Inhibition of Equus caballus (horse) serum butyrylcholinesterase (BChE) assessed as inhibition of BTCh hydrolysis by Ellman method
Chain of Cholinesterase (P81908 whole entry): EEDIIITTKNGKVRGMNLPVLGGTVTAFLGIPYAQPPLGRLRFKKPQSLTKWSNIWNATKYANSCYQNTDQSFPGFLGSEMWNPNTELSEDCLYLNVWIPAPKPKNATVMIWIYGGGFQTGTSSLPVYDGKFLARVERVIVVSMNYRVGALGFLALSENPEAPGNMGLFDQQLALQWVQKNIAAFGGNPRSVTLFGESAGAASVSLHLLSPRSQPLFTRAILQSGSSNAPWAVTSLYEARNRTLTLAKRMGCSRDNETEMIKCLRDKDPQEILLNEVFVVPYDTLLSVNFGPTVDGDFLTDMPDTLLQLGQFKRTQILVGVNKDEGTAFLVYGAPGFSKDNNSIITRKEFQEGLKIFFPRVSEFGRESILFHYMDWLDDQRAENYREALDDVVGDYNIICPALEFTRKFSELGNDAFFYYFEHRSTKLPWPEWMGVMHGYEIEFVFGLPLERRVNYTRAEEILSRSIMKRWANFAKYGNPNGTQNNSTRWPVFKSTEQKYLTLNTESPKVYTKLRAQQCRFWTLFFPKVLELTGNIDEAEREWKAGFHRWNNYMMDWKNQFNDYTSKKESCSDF

Chain of Cholinesterase (Equus caballus) (P81908 whole entry): as above

Which inhibition [1] does the source give for `CNC1=Nc2ccc(Cl)cc2C(c2ccccc2)=[N+]([O-])C1` here?
The inhibition was “Active”.

What does the source list for `NNc1nncc2ccccc12` [HYDRALAZINE HYDROCHLORIDE]?
inhibition [1]: Active; Ki (Acetylcholinesterase; read-out: Ki): 7 µM; Ki (Acetylcholinesterase; read-out: pKi (converted)): 251 µM; Ki (Cholinesterase; read-out: Ki): 1.9 µM; Ki (Cholinesterase; read-out: pKi (converted)): 5.01 µM

How did the inhibition [1] turn out when `CN1C(=O)CN=C(c2ccccc2)c2cc(Cl)ccc21` [DIAZEPAM] was run?
The inhibition was “Active”.

What about the Ki (Acetylcholinesterase; read-out: Ki) of the same molecule?
The Ki was 13 µM.

What about the Ki (Acetylcholinesterase; read-out: pKi (converted)) of the same molecule?
Its Ki is 251 µM.

With `CCOC(=O)C1=C(COCCN)NC(C)=C(C(=O)OC)C1c1ccccc1Cl` (centres undefined) as the molecule, how does the inhibition [1] read?
Its inhibition is “Active”.

What does the source list for `CCC(C)(C)C(=O)O[C@H]1C[C@@H](C)C=C2C=C[C@H](C)[C@H](CC[C@@H]3C[C@@H](O)CC(=O)O3)[C@H]21` [SIMVASTATIN]?
Ki (Acetylcholinesterase; read-out: Ki): 1.8 µM; Ki (Acetylcholinesterase; read-out: pKi (converted)): 251 µM; Ki (Cholinesterase; read-out: Ki): 0.75 µM; Ki (Cholinesterase; read-out: pKi (converted)): 5.01 µM

How did the inhibition [1] turn out when `CC[C@H](C)C(=O)O[C@H]1C[C@@H](C)C=C2C=C[C@H](C)[C@H](CC[C@@H]3C[C@@H](O)CC(=O)O3)[C@H]21` [LOVASTATIN] was run?
Its inhibition is “Active”.

What about the Ki (Acetylcholinesterase; read-out: Ki) of the same molecule?
The Ki was 2.7 µM.

And the Ki (Acetylcholinesterase; read-out: pKi (converted))?
Its Ki is 251 µM.

What about the Ki (Cholinesterase; read-out: Ki) of the same molecule?
The Ki was 1.1 µM.

What about the Ki (Cholinesterase; read-out: pKi (converted)) of the same molecule?
Its Ki is 5.01 µM.

With `COC(=O)C1=C(C)NC(C)=C(C(=O)OC)C1c1ccccc1[N+](=O)[O-]` [NIFEDIPINE] as the molecule, how does the inhibition [1] read?
Its inhibition is “Active”.

What about the Ki (Acetylcholinesterase; read-out: Ki) of the same molecule?
The Ki was 4 µM.

And the Ki (Acetylcholinesterase; read-out: pKi (converted))?
The Ki was 251 µM.

What about the Ki (Cholinesterase; read-out: Ki) of the same molecule?
Its Ki is 1.2 µM.

And the Ki (Cholinesterase; read-out: pKi (converted))?
The Ki was 5.01 µM.
